The target of experiment [1] is T1, δ-opioid receptor (Mus musculus, UniProt P32300).
T1 construct: from tissue; host or cells: vas deferens of male ddy mice
The experiment in a line: Change in δ-antagonist activity against DPDPE with time in mouse vas deferens (MVD). The conditions noted are these: for Ratio of IC50 Values / Kb: 173 and NTI at 20 nM, 174 and 5'-NTII at 100 nM; for Kb: read-out: Ke; for change of antagonist activity with time (in words): 15 min to 1 hour; for activity at 1 hour relative to 5'-NTII: vs 5'-NTII. On the procedure: (§1) In this experiment, ddy male mice were used. In a Magnus' tube which is filled with Krebes-Henseleit solution (NaCl […]; KCl 4.7 mM; CaCl2 2.5 mM; KH2 PO4 1.1 mM; NaHCO3 25 mM; glucose 11 mM) kept at 37° C., and into which an atmosphere consisting of 5% carbon dioxide and 95% oxygen was flown, vas deferens taken from the animals was suspended. Electric stimulation was applied through ring-shaped platinum electrodes mounted on the upper and lower portions of the tube at a frequency of 0.1 Hz and 5.0 mS duration. The contraction of the tissue was recorded on polygraph using isometric transducer.
(§2) Then 100 nM of the test compound was added. Twenty minutes later, DPDPE was begun to be added cumulatively. The ratio of IC50 values in the presence and absence of the test compound, Ke value (the molar concentration of the test compound necessary for translating the dose-effect curve to the curve of twice dose) and pA2 value were determined. The pA2 value was determined by the method of Shild et al (Shild, H. O., Br. J. Pharmac. Chamotehr., 4, 277 (1949)). That is, the logarithm of the test compound (log[test compound]) was plotted along the abscissa and the logarithm of the value obtained by subtracting 1 from the ratio of IC50 values was plotted in the presence and absence of the test compound [log(dose ratio-1)] along the ordinate. The pA2 value was determined from the value on the abscissa when the value on the ordinate of the obtained line is 0.
Using MVD, the antagonist activities of compounds 173 and 174 against DPDPE were determined. The ratio of IC50 values, Ke values and pA2 values at 15 minutes, 30 minutes and 1 hour from the addition of the test compounds were calculated. Since the concentrations of the test compounds are different, the reciprocals of Ke values were plotted in FIGS. 1 and 2.

Experiment [2] relates to delayed type hypersensitivity. In words: Mouse Delayed Type Hypersensitivity Reaction Suppression Test-2 (donor spleen cells, subcutaneous administration). It counts as in vivo. The conditions noted are these: C57BL/6 spleen cells; subcutaneous everyday from day of sensitization, totally 8 days; BALB/c. From the text: BALB/c mice (male, 7 weeks old) were used, and each group consisted of 4-5 mice. Spleen cells (1×10^7 ) obtained from a donor mouse (C57BL/6) was subcutaneously administered to sensitize the mice. On Day 7 from the sensitization, the spleen cells (5×10^6) of the donor were subcutaneously administered on the right hing leg and spleen cells (5×10^6) obtained from a mouse of the same line as the recipient mice were subcutaneously administered on the left footpad. Twenty four hours later, the thicknesses of the right and left footpads were measured with a dial thickness gage, and the difference in thicknesses of the right and left footpads before the induction of the reaction and 24 hours after the induction of the reaction was employed as the index of the degree of the reaction.
The test compound was dissolved in 10% DMSO-water and was subcutaneously administered everyday from the day of sensitization to the day of induction of the reaction, totally 8 days. In the control group, 10% DMSO-water alone was administered in the same manner. The volume of administration was 10 ml/kg in both study groups and in the control group. Delayed Type Hypersensitivity Reaction=(thickness of right foodpad after induction-thickness of right footpad before induction)-(thickness of […] before induction) [formula]
wherein C means delayed type hypersensitivity reaction of the group to which the test compound was administered and D means the delayed type hypersensitivity reaction of the group to which vehicle was administered.

The subject of experiment [3] is Cerebral cortex nerve cells. In words: Brain cell-protecting action, MTT method. Conditions: 10 μM; for brain cell-protecting action (in words): MTT; for Ratio of Absorbances: study group / control group, 570 nm, 3 days culture; for brain cell-protecting activity relative to nor-BNI (in words): vs nor-BNI. The class given is cell-based, rat. As for the experimental part: The brain cell-protecting action was examined by MTT [3-(4,5-dimethylthiazol-2-yl)-2,5-diphenyltetrazolium bromide] method. MTT yields a dark blue formazan compound by mitochondria in living cells. This compound was dissolved in isopropanol and absorbance at 570 nm was measured, thereby measuring the number of living cells.
Cerebral cortex nerve cells of fetal rats of 17 days old were placed in wells of a 96-well plate at a population density of 1×10^5 cells/cm^2. Then 10 μM of a test compound was added and the cells were cultured in 200 μl of mixed medium of D-MEM/F.12 (1:1) for 3 days (37° C., 5%CO2). In a control group, the medium alone was added Then […] of MTT solution in PBS (6mg/ml) was added and the mixture was allowed to react for 3 hours (37° C., 5% CO2). After removing the culture medium, 100 μl of isopropanol was added and the absorbance was measured.
The ratio of the absorbances of the study group and the control group was employed as an index of brain cell-protecting action.

The target in another experiment is T2, κ-opioid receptor (Cavia porcellus, UniProt P41144).
T2 construct: from tissue; host or cells: ileum longitudinal muscle of male Hartley guinea pigs
The experiment in a line: κ-opioid antagonist activity against U-50488H in guinea pig ileum (GPI). The conditions noted are these: 20 min; for Ratio of IC50 Values: U-50488H IC50 with/without 100 nM test compound; for Kb: against U-50488H, test compound 100 nM, read-out: Ke. On the procedure:
Using guinea pig ileum (GPI), antagonist activities against U-50488H which is a κ-opioid agonist was determined.
Hartley male guinea pigs were used. After killing the guinea pigs by clubbing, ilea were taken. The inside of the ilea was washed with a nutrient liquid and only longitudinal muscles were peeled off. Using the thus obtained longitudinal muscles, the tests were carried out using the same apparatus as used in the experiment employing MVD.
First, U-50488H which is a κ-agonist was cumulatively added and IC50 value was determined. Thereafter, the muscle was well washed with the nutrient liquid. After the contraction reaction became stable, 100 nM of a test compound was added. From 20 minutes after, U-50488H was cumulatively added and the ratio of IC50 values, Ke value and pA2 value were determined in the same manner as in the experiment employing MVD.

In experiment [4] the target is T1, δ-opioid receptor. The experiment in a line: δ-opioid antagonist activity against DPDPE in mouse vas deferens (MVD). The conditions noted are these: 20 min; for Ratio of IC50 Values: DPDPE IC50 with/without 100 nM test compound; for Kb: against DPDPE, test compound 100 nM, read-out: Ke. As for the experimental part:
Using mouse vas deferens (MVD), the antagonist activity against DPDPE which is a δ-opioid agonist was checked.
as §1, §2

T1 sequence (P32300 whole entry): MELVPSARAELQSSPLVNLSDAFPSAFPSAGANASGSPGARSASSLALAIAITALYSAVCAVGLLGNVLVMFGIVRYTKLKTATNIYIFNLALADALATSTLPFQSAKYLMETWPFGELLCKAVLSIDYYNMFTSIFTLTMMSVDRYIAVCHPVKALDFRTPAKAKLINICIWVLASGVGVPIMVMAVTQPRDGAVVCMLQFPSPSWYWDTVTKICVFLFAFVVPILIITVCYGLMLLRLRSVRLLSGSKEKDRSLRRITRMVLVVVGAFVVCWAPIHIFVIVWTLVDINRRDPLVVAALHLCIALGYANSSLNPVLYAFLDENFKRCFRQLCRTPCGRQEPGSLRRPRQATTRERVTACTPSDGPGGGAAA
T2 sequence (P41144 whole entry): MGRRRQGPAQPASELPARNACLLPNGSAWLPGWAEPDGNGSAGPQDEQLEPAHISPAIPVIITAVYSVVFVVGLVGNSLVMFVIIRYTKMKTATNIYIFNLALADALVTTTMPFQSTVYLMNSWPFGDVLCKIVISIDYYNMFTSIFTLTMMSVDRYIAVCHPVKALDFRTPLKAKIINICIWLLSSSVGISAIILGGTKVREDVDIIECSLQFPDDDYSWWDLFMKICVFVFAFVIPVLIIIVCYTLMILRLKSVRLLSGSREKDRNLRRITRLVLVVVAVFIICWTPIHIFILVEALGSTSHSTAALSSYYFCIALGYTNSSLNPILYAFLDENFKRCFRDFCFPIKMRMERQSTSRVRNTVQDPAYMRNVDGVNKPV

For the compound `Oc1ccc2c3c1O[C@H]1c4[nH]c5cc(N=C=S)ccc5c4C[C@@]4(O)[C@@H](C2)N(CC2CC2)CC[C@]314` [Compound 174, 17-cyclopropylmethyl-6,7-didehydro-4,5α-epoxy-3,14β-dihydroxy-6'-isothiocyanato-6,7-2',3'-indolomorphinan], the “Ratio of IC50 Values” worked out at 25.7 at δ-opioid receptor [1] (15 min), 47.6 at δ-opioid receptor [1] (30 min) and 58.6 on δ-opioid receptor [1] (60 min). For the same compound, the figures for the Kb at δ-opioid receptor [1] (15 min), on δ-opioid receptor [1] (30 min) and on δ-opioid receptor [1] (60 min) were 4.05 nM, 2.15 nM and 1.74 nM, respectively. The “change of antagonist activity with time (in words)” value at δ-opioid receptor [1] is listed as “increased with time”. Besides, the “activity at 1 hour relative to 5'-NTII” value on δ-opioid receptor [1] (1 hour) is on record as “about 7 times”.
Take `C[S+]([O-])c1cccc2c3c([nH]c12)[C@@H]1Oc2c(O)ccc4c2[C@@]12CCN(CC1CC1)[C@H](C4)[C@]2(O)C3` (single isomer, unassigned) [Compound 592, 17-cyclopropylmethyl-6,7-didehydro-4,5α-epoxy-3,14β-dihydroxy-7'-methylsulfinyl-6,7-2',3'-indolomorphinan]: the “% Suppression” value in experiment [2] was 20%.
Turning to `CN(C)Cc1ccc2[nH]c3c(c2c1)C[C@@]1(O)[C@H]2Cc4ccc(O)c5c4[C@@]1(CCN2CC1CC1)[C@H]3O5` [Compound 10, 17-cyclopropylmethyl-6,7-didehydro-4,5α-epoxy-3,14β-dihydroxy-5'-(N,N-dimethylamino)methyl-6,7-2',3'-indolomorphinan], in experiment [3], the “brain cell-protecting action (in words)” value is reported as “Clear activities” and the “Ratio of Absorbances” value turned out to be 7.58. At κ-opioid receptor, the “Ratio of IC50 Values” was determined as 19.4 and the Kb came out at 9.67 nM. For the same compound, on δ-opioid receptor [4], the “Ratio of IC50 Values” is on record as 11.4 and the Kb was 9.62 nM.
`Oc1ccc2c3c1O[C@H]1c4[nH]c5c(N=C=S)cccc5c4C[C@@]4(O)[C@@H](C2)N(CC2CC2)CC[C@]314` [Compound 173, 17-cyclopropylmethyl-6,7-didehydro-4,5α-epoxy-3,14β-dihydroxy-7'-isothiocyanato-6,7-2',3'-indolomorphinan]: the figures for the “Ratio of IC50 Values” on δ-opioid receptor [1] (15 min), on δ-opioid receptor [1] (30 min) and at δ-opioid receptor [1] (60 min) were 105, 253 and 306, respectively. The Kb turned out to be 0.19 nM on δ-opioid receptor [1] (15 min), 0.08 nM on δ-opioid receptor [1] (30 min) and 0.07 nM at δ-opioid receptor [1] (60 min). Moreover, the “change of antagonist activity with time (in words)” value at δ-opioid receptor [1] is recorded as “increased with time”. For the same compound, the “activity at 1 hour relative to 5'-NTII” value on δ-opioid receptor [1] (1 hour) is given as “about 170 times”. Besides, on δ-opioid receptor [1] (1 hour, vs NTI), the “activity at 1 hour relative to NTI” value is reported as “about 3.5 times”. On δ-opioid receptor [1] (vs compound 174), the “activity relative to compound 174 (in words)” value is “inferior to that of compound 174”.
For the compound `O=C(NCC1CC1)c1ccc2[nH]c3c(c2c1)C[C@@]1(O)[C@H]2Cc4ccc(O)c5c4[C@@]1(CCN2CC1CC1)[C@H]3O5` [Compound 7, 17-cyclopropylmethyl-6,7-didehydro-4,5α-epoxy-3,14β-dihydroxy-5'-(N-cyclopropylmethylcarbamoyl)-6,7-2',3'-indolomorphinan], in experiment [3], the “brain cell-protecting action (in words)” value is “Clear activities” and the “Ratio of Absorbances” value came out at 5.31. Also, on κ-opioid receptor, the “Ratio of IC50 Values” turned out to be 22.8 and the Kb stood at 4.59 nM. Besides, on δ-opioid receptor [4], the “Ratio of IC50 Values” is 33.2 and the Kb came out at 3.11 nM.
Regarding `CN(C)CCc1ccc2[nH]c3c(c2c1)C[C@@]1(O)[C@H]2Cc4ccc(O)c5c4[C@@]1(CCN2CC1CC1)[C@H]3O5` [Compound 9, 17-cyclopropylmethyl-6,7-didehydro-4,5α-epoxy-3,14-dihydroxy-5'-[2-(N,N-dimethylamino)ethyl]-6,7-2',3'-indolomorphinan], in experiment [3], the “brain cell-protecting action (in words)” value was “Clear activities”, the “Ratio of Absorbances” value is recorded as 8.27 and the “brain cell-protecting activity relative to nor-BNI (in words)” value is on record as “higher than that of nor-BNI”. In addition, on κ-opioid receptor, the “Ratio of IC50 Values” is on record as 99.0 and the Kb came out at 4.07 nM. At δ-opioid receptor [4], the “Ratio of IC50 Values” is given as 25.6 and the Kb is 4.07 nM.
For `O=C(NCC1CC1)c1ccc2c3c([nH]c2c1)[C@@H]1Oc2c(O)ccc4c2[C@@]12CCN(CC1CC1)[C@H](C4)[C@]2(O)C3` [Compound 47, 17-cyclopropylmethyl-6,7-didehydro-4,5α-epoxy-3,14β-dihydroxy-6'-(N-cyclopropylmethylcarbamoyl)-6,7-2',3'-indolomorphinan], on κ-opioid receptor, the “Ratio of IC50 Values” was 3.11 and the Kb was found to be 47.4 nM. Moreover, at δ-opioid receptor [4], the “Ratio of IC50 Values” amounted to 13.0 and the Kb stood at 8.33 nM.
`Oc1ccc2c3c1O[C@H]1c4[nH]c5ccc(CNCC6CC6)cc5c4C[C@@]4(O)[C@@H](C2)N(CC2CC2)CC[C@]314` [Compound 180, 17-cyclopropylmethyl-6,7-didehydro-4,5α-epoxy-3,14β-dihydroxy-5'-(N-cyclopropylmethylamino)methyl-6,7-2',3'-indolomorphinan]: in experiment [3], the “brain cell-protecting action (in words)” value was “Clear activities”, the “Ratio of Absorbances” value is given as 8.73 and the “brain cell-protecting activity relative to nor-BNI (in words)” value is on record as “higher than that of nor-BNI”. On δ-opioid receptor [4], the “Ratio of IC50 Values” is reported as 15.2 and the Kb is 7.04 nM.
Consider `O=S(=O)(NCC1CC1)c1ccc2c3c([nH]c2c1)[C@@H]1Oc2c(O)ccc4c2[C@@]12CCN(CC1CC1)[C@H](C4)[C@]2(O)C3` [Compound 45, 17-cyclopropylmethyl-6,7-didehydro-4,5α-epoxy-3,14β-dihydroxy-6'-(N-cyclopropylmethylsulfamoyl)-6,7-2',3'-indolomorphinan], for which, on κ-opioid receptor, the “Ratio of IC50 Values” is reported as 3.22 and the Kb came out at 45.1 nM. Further, on δ-opioid receptor [4], the “Ratio of IC50 Values” came to 7.44 and the Kb was 15.5 nM.
